According to patent US20240287138A1, “CYCLIC PEPTIDES FOR INHIBITING TNF RECEPTOR 1 ACTIVITY” (Merck Sharp & Dohme LLC, priority 2023, published 2024):
pIC50, pKd: −log10 of the molar value. Like-named read-outs stand apart in the source and are kept apart here. Numbered stars: 1 amine (or outer) side, 2 acyl side, 3 side chain; on linkers, the order of the positions; unused ones are H or OH. Bridge positions count the residues as written; N and C are the ends. Square brackets hold non-standard residues; d marks the D form. Peptide text beside a SMILES is read from it. Trp(βS-Me,7-OMe) = COc1cccc2c([C@H](C)[C@H](N)C(=O)O)c[nH]c12; Trp(1-CH2COOH) = N[C@@H](Cc1cn(CC(=O)O)c2ccccc12)C(=O)O; X32 = NC(=O)c1ccc([C@@H](O)C(N[*:1])C(=O)[*:2])cc1; Trp(7-CN) = N#Cc1cccc2c(C[C@H](N)C(=O)O)c[nH]c12; Trp(7-Cl) = N[C@@H](Cc1c[nH]c2c(Cl)cccc12)C(=O)O; Phe(4-CONH2) = NC(=O)c1ccc(C[C@H](N)C(=O)O)cc1; Phe(4-COOH) = N[C@@H](Cc1ccc(C(=O)O)cc1)C(=O)O; X25 = O=C(O)c1ccc(C[C@H](N[*:1])C(=O)[*:2])cn1; Trp(7-aza) = N[C@@H](Cc1c[nH]c2ncccc12)C(=O)O; X18 = O=C([C@@H]1C=C[C@H](N[*:1])C1)[*:2]; dPro(4S-NH2) = N[C@@H]1CN[C@@H](C(=O)O)C1; Pip(5R-OH) = O=C(O)[C@@H]1CC[C@@H](O)CN1; X1 = O=C([C@@H]1CC[C@H](N[*:1])C1)[*:2]; X14 = CC(C)CCC[C@H](N[*:1])C(=O)[*:2]; Pip(4-aza) = O=C(O)[C@@H]1CNCCN1; hPhe = N[C@@H](CCc1ccccc1)C(=O)O; 4Pal = N[C@@H](Cc1ccncc1)C(=O)O; NMeE = CN[C@@H](CCC(=O)O)C(=O)O; dHyp = O=C(O)[C@H]1C[C@H](O)CN1; Lys(Me) = CNCCCC[C@H](N)C(=O)O; αMeS = C[C@](N)(CO)C(=O)O; NMeA = CN[C@@H](C)C(=O)O; Nle = CCCC[C@H](N)C(=O)O; NEtG = CCNCC(=O)O; Sar = CNCC(=O)O

Assays:
[1] = biological target: T1, human TNFR1 extracellular domain (ECD) protein (Homo sapiens, UniProt P19438); assay: SPR binding affinity to captured human TNFR1 ECD
T1 construct: HRV 3C protease cleavage site (C); 6His (C, cleaved yes); made in house; host or cells: Sf21 insect cells (baculovirus), secreted
T1 sequence (P19438 30-211): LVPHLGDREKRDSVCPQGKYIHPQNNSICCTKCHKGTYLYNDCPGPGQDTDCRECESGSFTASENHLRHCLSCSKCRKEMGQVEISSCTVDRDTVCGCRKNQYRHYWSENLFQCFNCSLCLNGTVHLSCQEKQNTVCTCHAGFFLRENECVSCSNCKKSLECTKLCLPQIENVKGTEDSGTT
Description: (§1) B. Procedure for Binding Affinity and Selectivity measured by SPR
(§2) Affinity and selectivity for hTNFR1 and TNFR2 was determined using SPR. Human TNFR1 or TNFR2 genes (extracellular domain only) were synthesized with a C-terminal Avi-tag, HRV 3C protease cleavage site followed by a 6His-tag for affinity purification. The final gene product was cloned into pBAC™-1 vector (Millipore Sigma) for expression testing in insect cells. Constructs were transfected into Sf21 cells for baculovirus generation followed by protein expression analysis in Sf21 and Tni cell lines. Large scale expression in Sf21 cells was performed using baculovirus infected insect cells (BIICs) infected at a MOI=2.0 grown for 72 h. Target proteins secreted into the media were harvested via centrifugation and concentrated using diafiltration. TNFR was purified by immobilized metal ion affinity chromatography (IMAC) using a Ni-Sepharose HisTrap™ column (Cytiva™). Isolated TNFR had His tag removed using HRV 3C protease followed by additional purification using Ni-NTA chromatography. Biotinylation was performed on Ni-NTA flow-through fractions concentrated to 45 μM and treated with BirA ligase (1:100, μg/μg ratio) in 50 mM Tris pH 7.5, 150 mM NaCl, 50 μM biotin, 10 mM magnesium acetate, 10 mM ATP at 4° C. for 20 h. Final purification of biotin-TNFR and buffer exchange into 20 mM HEPES pH 7.5, 150 mM NaCl was performed using a HiLoad® Superdex® 200 26/60 column (Cytiva™). Highly purified protein was aliquoted and stored at −80° C.
(§3) The SPR assay uses a Cytiva™ 8K or 8K+ biosensor instrument to measure the kinetics of peptide analytes binding to captured human TNFR1 extracellular domain (ECD) protein; peptide analytes are also evaluated for any off-target binding to human TNFR2 ECD protein in parallel. Recombinant human TNFR1 ECD and human TNFR2 ECD proteins, biotinylated via engineered C-terminal avi-tags, are immobilized to a regenerable streptavidin biosensor chip surface (Cytiva™ Biotin CAPture kit, Series S; cat. #28920234). Peptide analytes binding to immobilized human TNFR1 ECD protein and their subsequent dissociation are conducted in a buffer of 10 mM HEPES pH 7.4, 150 mM NaCl, 3 mM EDTA, 0.05% P20,2% DMSO under laminar flow conditions and measured in response units (RU), which are directly proportional to the accumulated mass on the surface of the biosensor chip; the biosensor chip surface is regenerated via Cytiva™ proprietary methods between the evaluation of each peptide analyte. […] The SPR assay determines the association and dissociation rate constants, kon and koff, for each peptide analyte and, from these values, calculates the binding affinity, […] reported in Table 2.

human TNFR2 ECD protein = biological target: T2, human TNFR2 ECD protein (Homo sapiens, UniProt P20333); assay: SPR off-target binding (selectivity) to human TNFR2 ECD
T2 construct: HRV 3C protease cleavage site (C); 6His (C, cleaved yes); made in house; host or cells: Sf21 insect cells (baculovirus), secreted
T2 sequence (P20333 23-257): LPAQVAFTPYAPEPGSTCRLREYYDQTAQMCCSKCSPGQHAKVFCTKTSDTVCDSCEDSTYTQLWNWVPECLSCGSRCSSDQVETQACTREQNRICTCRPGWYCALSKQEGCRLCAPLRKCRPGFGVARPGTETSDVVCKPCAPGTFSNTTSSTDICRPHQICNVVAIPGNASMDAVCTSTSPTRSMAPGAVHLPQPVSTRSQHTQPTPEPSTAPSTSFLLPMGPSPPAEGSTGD
Description: as §1, §2, §3

[2] = biological target: T3, TNFα-induced NF-κB signal transduction pathway (TNFR1 signaling) in THP-1 cells (Homo sapiens, UniProt P19438); assay: THP-1 Lucia NF-κB reporter cell assay, inhibition of TNFα-induced NF-κB signaling; assay type: cell-based; settings: THP-1 NF-κB Lucia reporter cells, 10 ng/mL TNFα, 16-18 h, secreted luciferase; read-out: THP-1 IC50
T3 sequence (P19438 30-455): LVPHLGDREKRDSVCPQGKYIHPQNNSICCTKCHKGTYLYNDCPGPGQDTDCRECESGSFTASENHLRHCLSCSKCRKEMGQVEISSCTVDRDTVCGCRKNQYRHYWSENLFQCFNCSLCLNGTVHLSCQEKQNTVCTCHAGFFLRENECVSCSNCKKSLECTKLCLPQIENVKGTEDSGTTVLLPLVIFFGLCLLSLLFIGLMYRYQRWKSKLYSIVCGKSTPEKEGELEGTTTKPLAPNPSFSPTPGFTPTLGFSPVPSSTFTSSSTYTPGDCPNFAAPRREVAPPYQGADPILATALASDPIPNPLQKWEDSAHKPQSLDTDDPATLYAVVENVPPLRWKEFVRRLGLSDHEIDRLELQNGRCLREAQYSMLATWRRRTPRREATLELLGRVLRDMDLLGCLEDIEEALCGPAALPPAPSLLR
In short: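 Read-out: secreted Lucia luciferase luminescence (QUANTI-Luc) from supernatant after 16-18 h, 37 °C, 10 ng/mL rhTNFα. Peptide pretreatment 1 h at 37 °C; 20,000 cells/well, selection antibiotics omitted. IC50 via 4-parameter logistic model against min/max controls.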

[3] = biotinylated human TNFR1 ECD on streptavidin chip, from kon and koff, read-out: SPR hTNFR1 KD
[4] = biotinylated human TNFR2 ECD on streptavidin chip, read-out: SPR hTNFR2 KD

SMILES | pKd [1] | pKd (human TNFR2 ECD protein) | pIC50 [2] | pKd [1, 3] | pKd (human TNFR2 ECD protein; [4])
CCCC[C@@H]1NC(=O)[C@@H]2CC[C@@H](C2)NC(=O)[C@H]([C@@H](C)c2c[nH]c3c(OC)cccc23)NC(=O)CN(C)C(=O)[C@H](Cc2ccc(C(=O)O)cc2)NC(=O)[C@H](Cc2ccc(C(N)=O)cc2)NC(=O)[C@](C)(CO)NC(=O)[C@H](Cc2c[nH]c3c(Cl)cccc23)NC(=O)[C@H](Cc2ccc(C(=O)O)nc2)NC(=O)[C@H](CC(N)=O)NC(=O)[C@H]2C[C@H](O)CN2C(=O)[C@H](Cc2c[nH]c3ncccc23)NC(=O)[C@@H]2CC[C@@H](O)CN2C(=O)[C@H](Cc2ccncc2)NC1=O [SEQ ID NO. 57] (cyclo([4Pal][Pip(5R-OH)][Trp(7-aza)][dHyp]N[X25][Trp(7-Cl)][αMeS][Phe(4-CONH2)][Phe(4-COOH)][Sar][Trp(βS-Me,7-OMe)][X1][Nle])) | 10.05 | < 6.00 | 9.10 | – | –
CCCC[C@@H]1NC(=O)CSC[C@@H](C(N)=O)NC(=O)[C@H]([C@@H](C)c2c[nH]c3c(OC)cccc23)NC(=O)CN(C)C(=O)[C@H](Cc2ccc(O)cc2)NC(=O)[C@H](Cc2ccc(C(=O)O)cc2)NC(=O)[C@](C)(CO)NC(=O)[C@H](Cc2c[nH]c3c(Cl)cccc23)NC(=O)[C@H](Cc2ccncc2)NC(=O)[C@H](CC(N)=O)NC(=O)[C@H](CCC(=O)O)N(C)C(=O)[C@H](Cc2c[nH]c3ncccc23)NC(=O)[C@@H]2CNCCN2C(=O)[C@H](Cc2ccncc2)NC1=O [SEQ ID NO. 68] ({CH2CO}-[Nle][4Pal][Pip(4-aza)][Trp(7-aza)][NMeE]N[4Pal][Trp(7-Cl)][αMeS][Phe(4-COOH)]Y[Sar][Trp(βS-Me,7-OMe)]C-NH2; thioether N-14) | – | – | 8.52 | 9.26 | < 6.00
C[C@H]1C(=O)N[C@@H](CC(N)=O)C(=O)N[C@@H](Cc2ccncc2)C(=O)N[C@@H](Cc2c[nH]c3ccccc23)C(=O)N[C@@](C)(CO)C(=O)N[C@@H](Cc2ccc(C(=O)O)cc2)C(=O)N[C@@H](Cc2ccc(O)cc2)C(=O)N(C)CC(=O)N[C@@H](Cc2c[nH]c3ccccc23)C(=O)N[C@H]2C=C[C@H](C2)C(=O)N[C@@H](CCc2ccccc2)C(=O)N[C@@H](Cc2ccncc2)C(=O)N[C@@H](CO)C(=O)N[C@@H](Cc2c[nH]c3ccccc23)C(=O)N1C [SEQ ID NO. 73] (cyclo([4Pal]SW[NMeA]N[4Pal]W[αMeS][Phe(4-COOH)]Y[Sar]W[X18][hPhe])) | 9.05 | < 6.00 | 8.24 | – | –
CNCCCC[C@@H]1NC(=O)[C@@H]2CC[C@@H](C2)NC(=O)[C@H]([C@@H](C)c2c[nH]c3c(OC)cccc23)NC(=O)CN(C)C(=O)[C@H](Cc2ccc(O)cc2)NC(=O)[C@H](Cc2ccc(C(N)=O)cc2)NC(=O)[C@](C)(CO)NC(=O)[C@H](Cc2c[nH]c3c(Cl)cccc23)NC(=O)[C@H](Cc2ccncc2)NC(=O)[C@H](CC(N)=O)NC(=O)[C@H](CCC(=O)O)N(C)C(=O)[C@H](Cc2c[nH]c3ccccc23)NC(=O)[C@@H]2CC[C@@H](O)CN2C(=O)[C@H](Cc2ccncc2)NC1=O [SEQ ID NO. 86] (cyclo([4Pal][Trp(7-Cl)][αMeS][Phe(4-CONH2)]Y[Sar][Trp(βS-Me,7-OMe)][X1][Lys(Me)][4Pal][Pip(5R-OH)]W[NMeE]N)) | 10.10 | < 6.00 | 9.30 | – | –
CCCC[C@@H]1NC(=O)[C@@H]2CC[C@@H](C2)NC(=O)[C@H]([C@@H](C)c2c[nH]c3c(OC)cccc23)NC(=O)CN(C)C(=O)C([C@H](O)c2ccc(C(N)=O)cc2)NC(=O)[C@H](Cc2ccc(C(N)=O)cc2)NC(=O)[C@](C)(CO)NC(=O)[C@H](Cc2c[nH]c3c(C#N)cccc23)NC(=O)[C@H](Cc2ccc(C(=O)O)cc2)NC(=O)[C@H](CC(N)=O)NC(=O)[C@H]2C[C@H](N)CN2C(=O)[C@H](Cc2cn(CC(=O)O)c3ccccc23)NC(=O)[C@@H]2CC[C@@H](O)CN2C(=O)[C@H](Cc2ccncc2)NC1=O (stereo partly drawn) [SEQ ID NO. 87] (cyclo([4Pal][Pip(5R-OH)][Trp(1-CH2COOH)][dPro(4S-NH2)]N[Phe(4-COOH)][Trp(7-CN)][αMeS][Phe(4-CONH2)][X32][Sar][Trp(βS-Me,7-OMe)][X1][Nle])) | – | – | 9.15 | 10.70 | < 6.00
COc1cccc2c([C@H](C)[C@@H]3NC(=O)CN(C)C(=O)[C@H](Cc4ccc(O)cc4)NC(=O)[C@H](Cc4ccc(C(N)=O)cc4)NC(=O)[C@](C)(CO)NC(=O)[C@H](Cc4c[nH]c5c(Cl)cccc45)NC(=O)[C@H](Cc4ccc(C(=O)O)cc4)NC(=O)[C@H](CC(N)=O)NC(=O)[C@H](CCC(=O)O)N(C)C(=O)[C@H](Cc4c[nH]c5ccccc45)NC(=O)[C@@H]4CNCCN4C(=O)[C@H](Cc4ccncc4)NC(=O)[C@H](CCCC(C)C)NC(=O)CSC[C@@H](C(N)=O)NC3=O)c[nH]c12 [SEQ ID NO. 93] ({CH2CO}-[X14][4Pal][Pip(4-aza)]W[NMeE]N[Phe(4-COOH)][Trp(7-Cl)][αMeS][Phe(4-CONH2)]Y[Sar][Trp(βS-Me,7-OMe)]C-NH2; thioether N-14) | 9.11 | < 6.00 | 8.57 | – | –
CCCC[C@@H]1NC(=O)[C@@H]2CC[C@@H](C2)NC(=O)[C@H]([C@@H](C)c2c[nH]c3c(OC)cccc23)NC(=O)CN(C)C(=O)[C@H](Cc2ccc(O)cc2)NC(=O)[C@H](Cc2ccc(C(=O)O)cc2)NC(=O)[C@](C)(CO)NC(=O)[C@H](Cc2c[nH]c3c(Cl)cccc23)NC(=O)[C@H](Cc2ccncc2)NC(=O)[C@H](CC(N)=O)NC(=O)CN(CC)C(=O)[C@H](Cc2c[nH]c3ccccc23)NC(=O)[C@@H]2CNCCN2C(=O)[C@H](Cc2ccncc2)NC1=O [SEQ ID NO. 94] (cyclo([4Pal][Trp(7-Cl)][αMeS][Phe(4-COOH)]Y[Sar][Trp(βS-Me,7-OMe)][X1][Nle][4Pal][Pip(4-aza)]W[NEtG]N)) | 10.15 | < 6.00 | 9.10 | – | –
